Data: ChEMBL document CHEMBL4396875, “Hybridization of β-Adrenergic Agonists and Antagonists Confers G Protein Bias” (J Med Chem, 2019)
One block for each molecule: values may come before it.

Key:
Format in all cases: cell-based
[1] = target: Beta-1 adrenergic receptor (Mus musculus, UniProt P34971); assay: Displacement of [3H]-CGP-12177 from murine beta1-adrenergic receptor expressed in HEK293T cells after 60 mins by radioligand competition binding assay
[2] = target: T1, Beta-2 adrenergic receptor (Homo sapiens, UniProt P07550); assay: Displacement of [3H]-CGP-12177 from human beta2-adrenergic receptor expressed in CHO cells after 60 mins by radioligand competition binding assay
[3] = target: T2, Beta-1 adrenergic receptor (Homo sapiens, UniProt P08588); assay: Agonist activity at beta1-adrenergic receptor (unknown origin) expressed in HEK293T cells harboring Rluc2-117-GalphaS/GFP10-Ggamma/Gbeta1 assessed as activation of GalphaS incubated for 5 mins in presence of coelenterazine 400a by BRET assay
[4] = target: T2, Beta-1 adrenergic receptor; assay: Agonist activity at beta1-adrenergic receptor (unknown origin) expressed in HEK293T cells harboring GFP/Rluc2-tagged beta-arrestin2 assessed as increase in beta-arrestin2 recruitment incubated for 5 mins in presence of coelenterazine 400a by BRET assay
[5] = target: T2, Beta-1 adrenergic receptor; assay: Agonist activity at beta1-adrenergic receptor (unknown origin) expressed in HEK293T cells harboring GFP/Rluc2-tagged beta-arrestin2 assessed as increase in beta-arrestin2 recruitment incubated for 5 mins in presence of GRK2 and coelenterazine 400a by BRET assay
[6] = target: T2, Beta-1 adrenergic receptor; assay: Agonist activity at beta1-adrenergic receptor (unknown origin) expressed in HEK293T cells harboring GFP/Rluc2-tagged beta-arrestin2 assessed as increase in beta-arrestin2 recruitment incubated for 5 mins in presence of GRK5 and coelenterazine 400a by BRET assay
[7] = target: T1, Beta-2 adrenergic receptor; assay: Agonist activity at beta2-adrenergic receptor (unknown origin) expressed in HEK293T cells harboring Rluc2-117-GalphaS/GFP10-Ggamma/Gbeta1 assessed as activation of GalphaS incubated for 5 mins in presence of coelenterazine 400a by BRET assay
[8] = target: T1, Beta-2 adrenergic receptor; assay: Agonist activity at beta2-adrenergic receptor (unknown origin) expressed in HEK293T cells harboring GFP/Rluc2-tagged beta-arrestin2 assessed as increase in beta-arrestin2 recruitment incubated for 5 mins in presence of coelenterazine 400a by BRET assay
[9] = target: T1, Beta-2 adrenergic receptor; assay: Agonist activity at beta2-adrenergic receptor (unknown origin) expressed in HEK293T cells harboring GFP/Rluc2-tagged beta-arrestin2 assessed as increase in beta-arrestin2 recruitment incubated for 5 mins in presence of GSK2 and coelenterazine 400a by BRET assay
[10] = target: T1, Beta-2 adrenergic receptor; assay: Agonist activity at beta2-adrenergic receptor (unknown origin) expressed in HEK293T cells harboring GFP/Rluc2-tagged beta-arrestin2 assessed as increase in beta-arrestin2 recruitment incubated for 5 mins in presence of GSK5 and coelenterazine 400a by BRET assay

T2 sequence (P08588 whole entry): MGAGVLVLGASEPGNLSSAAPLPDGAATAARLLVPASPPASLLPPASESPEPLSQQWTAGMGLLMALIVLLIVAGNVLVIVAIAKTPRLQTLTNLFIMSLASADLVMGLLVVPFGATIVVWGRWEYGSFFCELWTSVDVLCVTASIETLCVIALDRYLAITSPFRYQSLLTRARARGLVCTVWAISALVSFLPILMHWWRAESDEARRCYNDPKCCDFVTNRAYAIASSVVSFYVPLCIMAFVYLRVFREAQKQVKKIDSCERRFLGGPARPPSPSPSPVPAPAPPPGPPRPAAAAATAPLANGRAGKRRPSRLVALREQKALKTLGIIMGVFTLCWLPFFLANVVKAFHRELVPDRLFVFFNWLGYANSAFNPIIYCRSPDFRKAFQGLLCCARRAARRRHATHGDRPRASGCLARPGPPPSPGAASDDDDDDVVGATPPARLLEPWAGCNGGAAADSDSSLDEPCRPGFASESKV
Beta-1 adrenergic receptor (Mus musculus, UniProt P34971), sequence (P34971 whole entry): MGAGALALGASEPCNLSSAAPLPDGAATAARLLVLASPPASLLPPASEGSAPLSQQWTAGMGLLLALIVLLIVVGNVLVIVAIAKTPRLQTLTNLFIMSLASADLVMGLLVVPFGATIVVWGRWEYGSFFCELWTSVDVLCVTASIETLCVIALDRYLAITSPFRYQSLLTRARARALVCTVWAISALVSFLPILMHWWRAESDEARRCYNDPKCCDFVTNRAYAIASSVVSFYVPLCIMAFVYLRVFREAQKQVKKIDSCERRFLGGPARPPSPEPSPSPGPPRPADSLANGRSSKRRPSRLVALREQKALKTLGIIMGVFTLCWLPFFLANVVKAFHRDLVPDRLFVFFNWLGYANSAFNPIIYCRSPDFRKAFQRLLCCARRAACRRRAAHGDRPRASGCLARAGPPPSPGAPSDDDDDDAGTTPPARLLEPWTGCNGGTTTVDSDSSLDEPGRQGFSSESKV
T1 sequence (P07550 whole entry): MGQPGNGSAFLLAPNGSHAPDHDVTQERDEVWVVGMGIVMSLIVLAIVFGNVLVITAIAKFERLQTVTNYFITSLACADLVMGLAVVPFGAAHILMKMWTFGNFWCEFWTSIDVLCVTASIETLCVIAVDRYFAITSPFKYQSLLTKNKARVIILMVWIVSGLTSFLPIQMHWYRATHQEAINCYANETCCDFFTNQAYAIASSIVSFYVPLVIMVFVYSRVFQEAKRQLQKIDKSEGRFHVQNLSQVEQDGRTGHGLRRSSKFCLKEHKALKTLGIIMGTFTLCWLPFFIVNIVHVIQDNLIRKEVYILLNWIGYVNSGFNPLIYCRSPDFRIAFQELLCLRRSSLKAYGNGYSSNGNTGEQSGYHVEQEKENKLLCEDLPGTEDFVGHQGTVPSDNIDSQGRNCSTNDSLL

Ki [1]: 0.33 µM
Ki [2]: 0.026 µM
SMILES: COc1ccccc1OCCNCCc1cccc2[nH]c3ccccc3c12

EC50 ([3]; read-out: pEC50 (converted)): 2 µM
EC50 [4]: 0.794 µM
EC50 [5]: 0.794 µM
EC50 [6]: 0.501 µM
EC50 [7]: 0.1 µM
EC50 [8]: 0.724 µM
EC50 [9]: 0.501 µM
EC50 [10]: 0.417 µM
SMILES: COc1cc(CCNC[C@H](O)c2ccc(O)c(O)c2)ccc1OCCCc1ccccc1

Ki [1]: 1.2 µM
Ki [2]: 0.7 µM
SMILES: COc1cc(CCNCCCOc2ccc(O)c(O)c2)ccc1OCCCc1ccccc1

Ki [1]: 0.31 µM
Ki [2]: 0.12 µM
SMILES: COc1cc(CCNC[C@@H](O)COc2ccc(O)c(O)c2)ccc1OCCCc1ccccc1

Ki [1]: 0.024 µM
Ki [2]: 0.0054 µM
SMILES: COc1ccccc1OCCNCCCOc1cccc2[nH]c3ccccc3c12

Ki [1]: > 10 µM
Ki [2]: 3.8 µM
SMILES: COc1ccccc1OCCNCCCOc1ccc(O)c(O)c1

Ki [1]: 0.0066 µM
Ki [2]: 0.0033 µM
SMILES: COc1ccccc1OCCNC[C@H](O)c1cccc2[nH]c3ccccc3c12

Ki [1]: 7.4 µM
Ki [2]: 7.9 µM
SMILES: COc1ccccc1OCCNC[C@@H](O)COc1ccc(O)c(O)c1

Ki [1]: > 10 µM
Ki [2]: 5.2 µM
SMILES: COc1ccccc1OCCNC[C@H](O)Cc1ccc(O)c(O)c1

Ki [1]: 0.014 µM
Ki [2]: 0.012 µM
EC50 ([3]; read-out: pEC50 (converted)): 0.631 µM
EC50 [4]: 0.631 µM
EC50 [5]: 1 µM
EC50 [6]: 0.316 µM
EC50 [7]: 0.794 µM
EC50 [9]: 0.316 µM
EC50 [10]: 0.251 µM
SMILES: CC(C)NC[C@H](O)COc1ccc(O)c(O)c1

Ki [1]: 0.012 µM
Ki [2]: 0.021 µM
EC50 ([3]; read-out: EC50): 0.3 to 0.8 µM
EC50 ([3]; read-out: pEC50 (converted)): 0.794 µM
EC50 [4]: 0.316 µM
EC50 [5]: 0.398 µM
EC50 [6]: 0.398 µM
EC50 [7]: 12.6 µM
EC50 [9]: 0.794 µM
EC50 [10]: 0.631 µM
SMILES: COc1ccccc1OCCNC[C@H](O)COc1ccc(O)c(O)c1

Ki [1]: 0.0065 µM
Ki [2]: 0.0072 µM
EC50 ([3]; read-out: pEC50 (converted)): 2.51 µM
EC50 [4]: 10 µM
EC50 [5]: 2.51 µM
EC50 [6]: 7.94 µM
EC50 [7]: 12.6 µM
EC50 [10]: 2 µM
SMILES: COc1cc(CCNC[C@H](O)COc2ccc(O)c(O)c2)ccc1OCCCc1ccccc1

EC50 ([3]; read-out: pEC50 (converted)): 0.0398 µM
EC50 [4]: 0.0794 µM
EC50 [5]: 0.0631 µM
EC50 [6]: 0.0513 µM
EC50 [7]: 0.0631 µM
EC50 [8]: 0.269 µM
EC50 [9]: 0.158 µM
EC50 [10]: 0.1 µM
SMILES: COc1ccccc1OCCNC[C@H](O)c1ccc(O)c(O)c1

Ki [1]: > 10 µM
Ki [2]: 0.92 µM
SMILES: COc1ccccc1OCCNCCCc1ccc(O)c(O)c1

Ki [1]: > 10 µM
Ki [2]: 6.9 µM
SMILES: CC(C)NCCCOc1ccc(O)c(O)c1

Ki [1]: 0.34 µM
Ki [2]: 0.17 µM
SMILES: COc1ccccc1OCCNC[C@@H](O)c1cccc2[nH]c3ccccc3c12

Ki [1]: 0.86 µM
Ki [2]: 0.42 µM
SMILES: CC(C)NC[C@@H](O)COc1ccc(O)c(O)c1

Ki [1]: 0.55 µM
SMILES: OCc1cc(C(O)CNCCCCCCOCCCCc2ccccc2)ccc1O (racemic) [SALMETEROL]

Ki [1]: 2.4 µM
Ki [2]: 0.74 µM
SMILES: COc1ccccc1OCCNC[C@@H](O)Cc1ccc(O)c(O)c1
